From patent US6737383B1, “Herbicidal oxadiazolidines” (priority 1999, dated 2004)

Legend:
morningglory = test: Test B pre/postemergence morningglory; type: in vivo, Ipomoea hederacea
Procedure, shortened: (§1)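 Herbicidal effect was estimated by eye on a ten-point control scale after plants spent twelve to sixteen days in a greenhouse following soil or foliar treatment. Foliar sprays targeted plants at one to four leaves; all doses were formulated in a non-phytotoxic solvent with surfactant.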

blackgrass = test: Test E blackgrass; type: in vivo, Alopecurus myosuroides; details: Preemergence
winter barley = test: Test E winter barley; type: in vivo, Hordeum vulgare; details: Preemergence
wild oat = test: Test E wild oat; type: in vivo, Avena fatua; details: Preemergence; for Wild oat plant response rating (0 to 100 scale): Rate 250 g/ha; for Plant response rating, Wild oat: 0 to 100 scale where 0 is no effect and 100 is complete control
winter wheat [1] = test: Test E winter wheat; type: in vivo, Triticum aestivum; details: Preemergence
giant foxtail = test: Test B pre/postemergence giant foxtail; type: in vivo, Setaria faberii
Procedure, shortened: as §1

green foxtail = test: Test E green foxtail; type: in vivo, Setaria viridis; details: Preemergence
Italian ryegrass = test: Test E Italian ryegrass; type: in vivo, Lolium multiflorum; details: Preemergence
winter wheat [2] = test: Test E winter wheat; type: in vivo, Triticum aestivum; details: Postemergence
Procedure, shortened: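 Plants were grown under normal greenhouse practice; for postemergence, in sandy loam soil mixed 60:40 with potting mix, treated at the 1- to 4-leaf stage. The compound was in a non-phytotoxic solvent carrying a surfactant. After roughly 21 to 28 days plants were scored visually against untreated plants.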

duck salad = test: Test B flood test duck salad; type: in vivo, Heteranthera limosa
Procedure, shortened: (§2)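 Plants were grown to the 2-leaf stage before treatment with test chemical, then held in a greenhouse for twelve to sixteen days. Injury was visually rated against untreated controls on a 0–10 scale, where 0 is no effect and 10 is complete control.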

rice = test: Test B flood test rice; type: in vivo, Oryza sativa
Procedure, shortened: as §2

[3] = Postemergence, Rate 125 g/ha, scale of 0 to 10 where 0 is no effect and 10 is complete control
[4] = Preemergence, Rate 62 g/ha, scale of 0 to 10 where 0 is no effect and 10 is complete control
[5] = Preemergence, Rate 125 g/ha, 0 is no effect, 10 is complete control
[6] = Preemergence, Rate 250 g/ha, scale 0 to 10, 0 is no effect, 10 is complete control
[7] = Preemergence, Rate 500 g/ha, scale 0 to 10 (0 no effect, 10 complete control)
[8] = Rate 62 g/ha, Postemergence, scale of 0 to 10 where 0 is no effect and 10 is complete control
[9] = Rate 250 g/ha, Postemergence, scale 0 to 10, 0 is no effect, 10 is complete control
[10] = Rate 500 g/ha, Postemergence, scale 0 to 10
[11] = Rate 500 g/ha, 0 to 100 scale where 0 is no effect and 100 is complete control
[12] = Rate 1000 g/ha, 0 to 100 scale where 0 is no effect and 100 is complete control
[13] = Rate 1000 g/ha, 0 to 100 scale, 0 is no effect and 100 is complete control
[14] = Postemergence, Rate 62 g/ha, scale 0 to 10, 0 is no effect, 10 is complete control
[15] = Postemergence, Rate 250 g/ha, scale 0 to 10, 0 no effect, 10 complete control
[16] = Preemergence, Rate 62 g/ha, scale 0 to 10 (0 no effect, 10 complete control)
[17] = Preemergence, Rate 125 g/ha, scale 0 to 10 (0 no effect, 10 complete control)
[18] = Preemergence, Rate 250 g/ha, scale of 0 to 10 where 0 is no effect and 10 is complete control
[19] = Preemergence, Rate 500 g/ha, scale 0 (no effect) to 10 (complete control)
[20] = Rate 500 g/ha, Postemergence, scale 0 to 10, 0 no effect, 10 complete control
[21] = Rate 62 g/ha, flood test species, Pre-emergence, visual evaluation after twelve to sixteen days
[22] = Rate 125 g/ha, under heading Pre-emergence, flood test species, visual evaluation after twelve to sixteen days
[23] = Rate 250 g/ha, Pre-emergence, flood-test species, scale 0 to 10, 0 is no effect, 10 is complete control
[24] = Rate 500 g/ha, Pre-emergence, flood test species, scale 0 to 10 (0 no effect, 10 complete control)
[25] = Postemergence, Rate 125 g/ha, scale 0 to 10, 0 is no effect, 10 is complete control
[26] = Postemergence, Rate 250 g/ha, scale 0 to 10, 0 is no effect, 10 is complete control
[27] = Preemergence, Rate 500 g/ha, scale of 0 to 10 where 0 is no effect and 10 is complete control

Structure (SMILES): CC1CCCCC1n1c(=O)on(C(=O)N(c2ccc(F)cc2F)C(C)C)c1=O (centres unmarked) [Compound 172]
- Morningglory plant response rating (morningglory; [3]): 5
- Morningglory plant response rating (morningglory; [4]): 0
- Morningglory plant response rating (0 to 10 scale) (morningglory; [5]): 0
- Morningglory plant response rating (morningglory; [6]): 0
- Morningglory plant response rating (morningglory; [7]): 0
- Morningglory plant response rating (morningglory; [8]): 2
- Plant response rating, Morningglory (morningglory; [9]): 5
- Morningglory plant response rating (morningglory; [10]): 8
- Blackgrass plant response rating (0 to 100 scale) (blackgrass; Rate 250 g/ha): 50
- Plant response rating, Blackgrass (blackgrass; [11]): 60
- Plant response rating, Blackgrass (blackgrass; [12]): 80
- Barley (winter) plant response rating (0 to 100 scale) (winter barley; Rate 250 g/ha): 40
- Plant response rating, Barley (winter) (winter barley; [11]): 40
- Plant response rating, Barley (winter) (winter barley; [12]): 20
- Wild oat plant response rating (0 to 100 scale) (wild oat): 30
- Plant response rating, Wild oat (wild oat; Rate 500 g/ha): 40
- Plant response rating, Wild oat (wild oat; Rate 1000 g/ha): 50
- Wheat (winter) plant response rating (0 to 100 scale) (winter wheat [1]; Rate 250 g/ha): 10
- Plant response rating, Wheat (winter) (winter wheat [1]; [11]): 20
- Plant response rating, Wheat (winter) (winter wheat [1]; [12]): 30
- Giant foxtail plant response rating (giant foxtail; [3]): 0
- Giant foxtail plant response rating (giant foxtail; [4]): 8
- Giant foxtail plant response rating (0 to 10 scale) (giant foxtail; [5]): 9
- Giant foxtail plant response rating (giant foxtail; [6]): 10
- Giant foxtail plant response rating (giant foxtail; [7]): 10
- Giant foxtail plant response rating (giant foxtail; [8]): 0
- Plant response rating, Giant foxtail (giant foxtail; [9]): 0
- Giant foxtail plant response rating (giant foxtail; [10]): 0
- Green foxtail plant response rating (0 to 100 scale) (green foxtail; Rate 250 g/ha): 60
- Plant response rating, Green foxtail (green foxtail; [11]): 85
- Plant response rating, Green foxtail (green foxtail; [12]): 100
- I. Ryegrass plant response rating (0 to 100 scale) (Italian ryegrass; Rate 250 g/ha): 30
- Plant response rating, I. Ryegrass (Italian ryegrass; [11]): 65
- Plant response rating, I. Ryegrass (Italian ryegrass; [12]): 80
- Plant response rating, Wheat (winter) (winter wheat [2]; [13]): 50
- Plant response rating, Wheat (winter) (winter wheat [2]; Rate 500 g/ha, 0 to 100 scale, 0 is no effect, 100 is complete control): 40

Structure (SMILES): CC(C)N(C(=O)n1oc(=O)n(CC(F)(F)F)c1=O)c1ccc(F)cc1 [Compound 163]
- Morningglory plant response rating (morningglory; [3]): 2
- Morningglory plant response rating (morningglory; [4]): 0
- Morningglory plant response rating (0 to 10 scale) (morningglory; [5]): 0
- Morningglory plant response rating (morningglory; [6]): 0
- Morningglory plant response rating (morningglory; [7]): 0
- Morningglory plant response rating (morningglory; [8]): 2
- Plant response rating, Morningglory (morningglory; [9]): 5
- Morningglory plant response rating (morningglory; [10]): 8
- Blackgrass plant response rating (0 to 100 scale) (blackgrass; Rate 250 g/ha): 30
- Plant response rating, Blackgrass (blackgrass; [11]): 40
- Plant response rating, Blackgrass (blackgrass; [12]): 50
- Barley (winter) plant response rating (0 to 100 scale) (winter barley; Rate 250 g/ha): 30
- Plant response rating, Barley (winter) (winter barley; [11]): 40
- Plant response rating, Barley (winter) (winter barley; [12]): 50
- Wild oat plant response rating (0 to 100 scale) (wild oat): 50
- Plant response rating, Wild oat (wild oat; Rate 500 g/ha): 60
- Plant response rating, Wild oat (wild oat; Rate 1000 g/ha): 70
- Wheat (winter) plant response rating (0 to 100 scale) (winter wheat [1]; Rate 250 g/ha): 30
- Plant response rating, Wheat (winter) (winter wheat [1]; [12]): 55
- Giant foxtail plant response rating (giant foxtail; [3]): 7
- Giant foxtail plant response rating (giant foxtail; [4]): 8
- Giant foxtail plant response rating (0 to 10 scale) (giant foxtail; [5]): 8
- Giant foxtail plant response rating (giant foxtail; [6]): 8
- Giant foxtail plant response rating (giant foxtail; [7]): 10
- Giant foxtail plant response rating (giant foxtail; [8]): 6
- Plant response rating, Giant foxtail (giant foxtail; [9]): 8
- Giant foxtail plant response rating (giant foxtail; [10]): 8
- Green foxtail plant response rating (0 to 100 scale) (green foxtail; Rate 250 g/ha): 100
- Plant response rating, Green foxtail (green foxtail; [11]): 100
- Plant response rating, Green foxtail (green foxtail; [12]): 100
- I. Ryegrass plant response rating (0 to 100 scale) (Italian ryegrass; Rate 250 g/ha): 30
- Plant response rating, I. Ryegrass (Italian ryegrass; [11]): 50
- Plant response rating, I. Ryegrass (Italian ryegrass; [12]): 60
- Plant response rating, Wheat (winter) (winter wheat [2]; [13]): 70
- Plant response rating, Wheat (winter) (winter wheat [2]; Rate 500 g/ha, 0 to 100 scale, 0 no effect, 100 complete control): 50
- Wheat (winter) plant response rating (winter wheat [2]; Rate 250 g/ha, 0 to 100 scale where 0 is no effect and 100 is complete control): 40

Structure (SMILES): Cc1ccccc1Cn1c(=O)on(C(=O)N(c2ccc(F)cc2)C(C)C)c1=O [Compound 88]
- Morningglory plant response rating (morningglory; [14]): 8
- Morningglory plant response rating (morningglory; [3]): 10
- Morningglory plant response rating (morningglory; [15]): 10
- Morningglory plant response rating (morningglory; [16]): 0
- Plant response rating, Morningglory (morningglory; [17]): 0
- Plant response rating, Morningglory (morningglory; [18]): 0
- Morningglory plant response rating (morningglory; [19]): 0
- Morningglory plant response rating (morningglory; [20]): 10
- Plant response rating, Blackgrass (blackgrass; Rate 250 g/ha, 0 to 100 scale): 50
- Plant response rating, Blackgrass (blackgrass; [12]): 50
- Plant response rating, Barley (winter) (winter barley; Rate 250 g/ha, 0 to 100 scale): 0
- Plant response rating, Barley (winter) (winter barley; [12]): 0
- Plant response rating, Wild oat (wild oat; Rate 1000 g/ha): 20
- Plant response rating, Wheat (winter) (winter wheat [1]; Rate 250 g/ha, 0 to 100 scale): 0
- Plant response rating, Wheat (winter) (winter wheat [1]; [12]): 10
- Giant foxtail plant response rating (giant foxtail; [14]): 0
- Giant foxtail plant response rating (giant foxtail; [3]): 3
- Giant foxtail plant response rating (giant foxtail; [15]): 3
- Giant foxtail plant response rating (giant foxtail; [16]): 4
- Plant response rating, Giant foxtail (giant foxtail; [17]): 6
- Plant response rating, Giant foxtail (giant foxtail; [18]): 10
- Giant foxtail plant response rating (giant foxtail; [19]): 10
- Giant foxtail plant response rating (giant foxtail; [20]): 3
- Plant response rating, Green foxtail (green foxtail; Rate 250 g/ha, 0 to 100 scale): 60
- Plant response rating, Green foxtail (green foxtail; [12]): 85
- Plant response rating, I. Ryegrass (Italian ryegrass; Rate 250 g/ha, 0 to 100 scale): 10
- Plant response rating, I. Ryegrass (Italian ryegrass; [12]): 50
- Plant response rating, Wheat (winter) (winter wheat [2]; Rate 250 g/ha, 0 to 100 scale (0 no effect, 100 complete control)): 0
- Plant response rating, Wheat (winter) (winter wheat [2]; [13]): 10

Structure (SMILES): Cc1nsc(Cl)c1Cn1c(=O)on(C(=O)N(c2ccc(F)cc2)C(C)C)c1=O [Compound 373]
- Plant response rating, Ducksalad (0 to 10 scale, 0 is no effect, 10 is complete control) (duck salad; [21]): 0
- Ducksalad plant response rating (0 to 10 scale, 0 is no effect, 10 is complete control) (duck salad; [22]): 0
- Ducksalad plant response rating (duck salad; [23]): 0
- Ducksalad plant response rating (duck salad; [24]): 0
- Plant response rating, Morningglory (morningglory; [25]): 8
- Plant response rating, Morningglory (morningglory; [26]): 8
- Plant response rating, Morningglory (morningglory; [16]): 0
- Morningglory plant response rating (0 to 10 scale) (morningglory; Preemergence, Rate 125 g/ha): 0
- Morningglory plant response rating (morningglory; [18]): 0
- Morningglory plant response rating (morningglory; [27]): 1
- Morningglory plant response rating (morningglory; [8]): 8
- Plant response rating, Morningglory (morningglory; [20]): 8
- Plant response rating, Rice (0 to 10 scale, 0 is no effect, 10 is complete control) (rice; [21]): 0
- Rice plant response rating (0 to 10 scale, 0 is no effect, 10 is complete control) (rice; [22]): 0
- Rice plant response rating (rice; [23]): 0
- Rice plant response rating (rice; [24]): 0
- Plant response rating, Giant foxtail (giant foxtail; [25]): 3
- Plant response rating, Giant foxtail (giant foxtail; [26]): 3
- Plant response rating, Giant foxtail (giant foxtail; [16]): 8
- Giant foxtail plant response rating (0 to 10 scale) (giant foxtail; Preemergence, Rate 125 g/ha): 8
- Giant foxtail plant response rating (giant foxtail; [18]): 10
- Giant foxtail plant response rating (giant foxtail; [27]): 10
- Giant foxtail plant response rating (giant foxtail; [8]): 0
- Plant response rating, Giant foxtail (giant foxtail; [20]): 6
